Experimental data from ChEMBL document CHEMBL4251590, “Novel vanillin derivatives: Synthesis, anti-oxidant, DNA and cellular protection properties” (Eur J Med Chem, 2018).
The source made the active and inactive calls. The rule behind the calls is not given here.

Columns and labels:
[1] = Antioxidant activity assessed as DPPH radical scavenging activity after 30 mins; format: functional
[2] = Antioxidant activity assessed as ferric ion reducing activity by measuring trolox equivalents using Fe3+-TPTZ after 30 mins by FRAP assay; format: functional
[3] = system: DNA; assay: Antioxidant activity assessed as protection against AAPH-induced DNA damage in Escherichia coli plasmid pbr322 DNA after 1 hr by agarose gel electrophoresis method; format: functional
[4] = Antioxidant activity assessed as trolox equivalents of AAPH-induced radical scavenging activity pretreated for 30 mins followed by […] challenge measured every 2 mins for 2 hrs by ORAC-FL assay; format: functional
[5] = system: DNA; assay: Antioxidant activity assessed as protection against AAPH-induced DNA damage in Escherichia coli plasmid pbr322 DNA assessed as DNA intensity level at 0.33 uM after 1 hr by agarose gel electrophoresis method (reference value: 0%); format: functional
[6] = system: DNA; assay: Antioxidant activity assessed as protection against AAPH-induced DNA damage in Escherichia coli plasmid pbr322 DNA assessed as DNA intensity level at 1 uM after 1 hr by agarose gel electrophoresis method (reference value: 0%); format: functional
[7] = system: DNA; assay: Antioxidant activity assessed as protection against AAPH-induced DNA damage in Escherichia coli plasmid pbr322 DNA assessed as DNA intensity level at 2.6 uM after 1 hr by agarose gel electrophoresis method (reference value: 0%); format: functional
[8] = system: SH-SY5Y; assay: Cytotoxicity against human SH-SY5Y cells up to 20 uM incubated for 24 hrs by MTT assay; format: cell-based
[9] = system: SH-SY5Y; assay: Cytoprotective activity against H2O2-induced oxidative damage in human SH-SY5Y cells at 0.1 uM preincubated for 24 hrs followed by H2O2 addition and measured after 24 hrs by MTT assay; format: functional
[10] = system: SH-SY5Y; assay: Cytoprotective activity against H2O2-induced oxidative damage in human SH-SY5Y cells at 10 uM preincubated for 24 hrs followed by H2O2 addition and measured after 24 hrs by MTT assay; format: functional
[11] = system: DNA; assay: Antioxidant activity assessed as protection against AAPH-induced DNA damage in Escherichia coli plasmid pbr322 DNA assessed as DNA intensity level at 0.65 uM after 1 hr by agarose gel electrophoresis method (reference value: 0%); format: functional
[12] = system: DNA; assay: Antioxidant activity assessed as protection against AAPH-induced DNA damage in Escherichia coli plasmid pbr322 DNA assessed as DNA intensity level at 4 uM after 1 hr by agarose gel electrophoresis method (reference value: 0%); format: functional
[13] = system: DNA; assay: Antioxidant activity assessed as protection against AAPH-induced DNA damage in Escherichia coli plasmid pbr322 DNA assessed as DNA intensity level at 0.11 uM after 1 hr by agarose gel electrophoresis method (reference value: 0%); format: functional
[14] = system: SH-SY5Y; assay: Cytoprotective activity against H2O2-induced oxidative damage in human SH-SY5Y cells at 5 uM preincubated for 24 hrs followed by H2O2 addition and measured after 24 hrs by MTT assay; format: functional
[15] = system: SH-SY5Y; assay: Cytotoxicity against human SH-SY5Y cells up to 1 mM incubated for 24 hrs by MTT assay; format: cell-based
[16] = system: SH-SY5Y; assay: Cytoprotective activity against H2O2-induced oxidative damage in human SH-SY5Y cells at 200 uM preincubated for 24 hrs followed by H2O2 addition and measured after 24 hrs by MTT assay; format: functional
[17] = Antioxidant activity assessed as DPPH radical scavenging activity up to 250 uM after 30 mins; format: functional
[18] = system: SH-SY5Y; assay: Cytoprotective activity against H2O2-induced oxidative damage in human SH-SY5Y cells up to 800 uM preincubated for 24 hrs followed by H2O2 addition and measured after 24 hrs by MTT assay; format: functional, cell-based

Row | Structure (SMILES) | IC50 [1] [µM] | Activity [2] [equiv] | IC50 [3] [µM] | Activity [4] [equiv] | other results
1 | COc1cc(CNCc2ccccc2)ccc1O | 107 | 0.16 | 4.1 | 3.16 | 
2 | COc1cc(CN(CCCO)Cc2cc(OC)c(O)c(OC)c2)cc(OC)c1O | 12.3 | 1.14 |  |  | 
3 | c1ccc(CN(Cc2ccccc2)c2ccc(N(Cc3ccccc3)Cc3ccccc3)cc2)cc1 | 144 | 2.81 |  |  | 
4 | COc1cc(C=O)cc(OC)c1O [SYRINGALDEHYDE] | 1150 | 0.93 | 9.5 | 1.45 | 
5 | COc1cccc(CN(Cc2cccc(OC)c2)c2ccc(N(Cc3cccc(OC)c3)Cc3cccc(OC)c3)cc2)c1 |  | 2.54 | 13.6 |  | Activity [17]: inactive
6 | COc1cc(CN(CCCN)Cc2ccc(O)c(OC)c2)ccc1O |  | 0.28 | 61.5 | 4.08 | Activity [17]: inactive
7 | COc1cc(/C=N/Cc2ccccc2)ccc1O | 248 | 0.06 | 3.8 | 1.85 | 
8 | COc1cc(C=O)ccc1O [VANILLIN] | 4050 | 0.11 | 5.6 | 2.19 | Activity [18]: inactive
9 | COc1cc(CN(CCCN(Cc2ccc(O)c(OC)c2)Cc2ccc(O)c(OC)c2)Cc2ccc(O)c(OC)c2)ccc1O |  | 0.74 | 13.9 | 7.54 | Activity [17]: inactive

The next lines start with results.

Row | IC50 [1] [µM] | Structure (SMILES) | Activity [2] [equiv] | IC50 [3] [µM] | Activity [4] [equiv] | other results
10 | 12.8 | COc1cc(CN(CCO)Cc2ccc(O)c(OC)c2)ccc1O | 0.62 |  |  | 
11 | 98 | Oc1ccc(CN(Cc2ccc(O)cc2)c2ccc(N(Cc3ccc(O)cc3)Cc3ccc(O)cc3)cc2)cc1 | 2.78 |  |  | 
12 | 5.8 | COc1cc(CN(Cc2ccc(O)c(OC)c2)c2ccc(N(Cc3ccc(O)c(OC)c3)Cc3ccc(O)c(OC)c3)cc2)ccc1O | 5.29 | 0.6 | 20.4 | Activity [5]: 25.1%; Activity [6]: 81.9%; Activity [7]: 90.5%; Activity [8]: Non-Toxic; Activity [9]: 8%; Activity [10]: 30%; Activity [11]: 59.7%; Activity [12]: 96.1%; Activity [13]: 15.8%
13 | 29.7 | COc1cc(CN(Cc2ccccc2)Cc2ccc(O)c(OC)c2)ccc1O | 0.55 | 3.8 | 5.34 | 
14 | 13.7 | COc1cc(CN(CCCO)Cc2ccc(O)c(OC)c2)ccc1O | 0.68 | 3.6 | 6.02 | Activity [14]: 6%; Activity [15]: Non-Toxic; Activity [16]: 20%
15 | 24 | COc1cc(CN(CCCCCO)Cc2ccc(O)c(OC)c2)ccc1O | 0.63 |  |  | 
16 | 15.4 | COc1cc(CN(Cc2ccccc2)Cc2cc(OC)c(O)c(OC)c2)cc(OC)c1O | 1.11 |  |  | 
17 | 22.2 | COc1cc(CN(CCCCCCO)Cc2ccc(O)c(OC)c2)ccc1O | 0.64 |  |  | 
18 | 21 | COc1cc(CN(CCCCO)Cc2ccc(O)c(OC)c2)ccc1O | 0.62 |  |  | 
19 | 138 | COc1cc(CN(Cc2ccc(O)c(OC)c2)[C@H]2CC[C@H](N(Cc3ccc(O)c(OC)c3)Cc3ccc(O)c(OC)c3)CC2)ccc1O | 0.56 |  |  | 
20 | 21.9 | CCCCN(Cc1ccc(O)c(OC)c1)Cc1ccc(O)c(OC)c1 | 0.6 |  |  | 
